The nature of experiment [1]: Cytotoxicity against human HCT15 cells assessed as cell viability at 10 uM after 72 hrs by sulforhodamine B assay relative to control. In kind it is functional. The note with it: HCT-15, 72 h, read-out: Activity.
Experiment [2] deals with Nuclear factor NF-kappa-B complex (Homo sapiens) (UniProt Q00653+P19838+Q04206). The experiment can be described thus: Inhibition of NF-kappaB (unknown origin) transcriptional activity in LPS-induced mouse RAW264.7 cells at 30 uM after 1 hr by secreted alkaline phosphatase assay relative to control. It counts as cell-based.
Experiment [3] in a line: Cytotoxicity against human PC3 cells assessed as cell viability at 10 uM after 72 hrs by sulforhodamine B assay relative to control. In kind it is functional. To be noted: PC-3, 72 h, read-out: Activity.
Experiment [4] deals with ACHN. The experiment can be described thus: Cytotoxicity against human ACHN cells assessed as cell viability at 10 uM after 72 hrs by sulforhodamine B assay relative to control. It counts as functional. The note with it: read-out: Activity.
The nature of experiment [5]: Cytotoxicity against human NUGC3 cells assessed as cell viability at 10 uM after 72 hrs by sulforhodamine B assay relative to control. It counts as functional. To be noted: NUGC-3, 72 h, read-out: Activity.
In experiment [6] the test system is NCI-H23. The experiment can be described thus: Cytotoxicity against human NCI-H23 cells assessed as cell viability at 10 uM after 72 hrs by sulforhodamine B assay relative to control. It counts as functional. The note with it: NCI-H23, 72 h, read-out: Activity.
Experiment [7] relates to MDA-MB-231. The experiment can be described thus: Cytotoxicity against human MDA-MB-231 cells assessed as cell viability at 10 uM after 72 hrs by sulforhodamine B assay relative to control. It counts as functional. The note with it: MDA-MB-231, 72 h, read-out: Activity.

SMILES strings stand for the structures.

Data on 11 compounds can be found in ChEMBL document CHEMBL3425509, “Design, synthesis, and biological evaluation of benzofuran- and 2,3-dihydrobenzofuran-2-carboxylic acid N-(substituted)phenylamide derivatives as anticancer agents and inhibitors of NF-κB” (Bioorg Med Chem Lett, 2015).

Nuclear factor NF-kappa-B complex (Homo sapiens), sequence (P19838 whole entry, looked up): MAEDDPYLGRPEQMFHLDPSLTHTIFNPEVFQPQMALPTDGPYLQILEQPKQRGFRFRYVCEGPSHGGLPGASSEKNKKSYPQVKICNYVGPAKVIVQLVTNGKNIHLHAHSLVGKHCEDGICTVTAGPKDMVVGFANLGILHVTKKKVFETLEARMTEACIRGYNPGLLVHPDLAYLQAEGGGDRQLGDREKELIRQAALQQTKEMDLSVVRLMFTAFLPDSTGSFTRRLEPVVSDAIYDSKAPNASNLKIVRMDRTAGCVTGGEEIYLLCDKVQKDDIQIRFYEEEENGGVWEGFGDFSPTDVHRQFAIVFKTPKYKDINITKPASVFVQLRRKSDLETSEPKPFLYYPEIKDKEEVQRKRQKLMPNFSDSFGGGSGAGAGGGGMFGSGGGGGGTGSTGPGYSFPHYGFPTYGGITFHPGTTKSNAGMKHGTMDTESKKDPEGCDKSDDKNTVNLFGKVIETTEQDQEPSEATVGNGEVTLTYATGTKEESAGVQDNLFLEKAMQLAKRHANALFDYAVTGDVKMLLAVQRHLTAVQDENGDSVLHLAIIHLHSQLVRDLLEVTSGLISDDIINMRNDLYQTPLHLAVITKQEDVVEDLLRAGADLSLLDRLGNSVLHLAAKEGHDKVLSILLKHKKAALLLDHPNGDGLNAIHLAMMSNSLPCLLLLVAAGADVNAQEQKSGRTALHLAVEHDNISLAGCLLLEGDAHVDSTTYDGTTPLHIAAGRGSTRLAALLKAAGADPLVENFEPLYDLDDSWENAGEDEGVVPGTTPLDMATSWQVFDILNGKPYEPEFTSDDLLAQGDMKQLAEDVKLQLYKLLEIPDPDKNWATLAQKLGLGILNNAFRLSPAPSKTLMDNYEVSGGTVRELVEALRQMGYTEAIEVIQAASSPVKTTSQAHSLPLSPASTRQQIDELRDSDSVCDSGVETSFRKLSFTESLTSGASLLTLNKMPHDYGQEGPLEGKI
Nuclear factor NF-kappa-B complex (Homo sapiens), sequence (Q00653 whole entry, looked up): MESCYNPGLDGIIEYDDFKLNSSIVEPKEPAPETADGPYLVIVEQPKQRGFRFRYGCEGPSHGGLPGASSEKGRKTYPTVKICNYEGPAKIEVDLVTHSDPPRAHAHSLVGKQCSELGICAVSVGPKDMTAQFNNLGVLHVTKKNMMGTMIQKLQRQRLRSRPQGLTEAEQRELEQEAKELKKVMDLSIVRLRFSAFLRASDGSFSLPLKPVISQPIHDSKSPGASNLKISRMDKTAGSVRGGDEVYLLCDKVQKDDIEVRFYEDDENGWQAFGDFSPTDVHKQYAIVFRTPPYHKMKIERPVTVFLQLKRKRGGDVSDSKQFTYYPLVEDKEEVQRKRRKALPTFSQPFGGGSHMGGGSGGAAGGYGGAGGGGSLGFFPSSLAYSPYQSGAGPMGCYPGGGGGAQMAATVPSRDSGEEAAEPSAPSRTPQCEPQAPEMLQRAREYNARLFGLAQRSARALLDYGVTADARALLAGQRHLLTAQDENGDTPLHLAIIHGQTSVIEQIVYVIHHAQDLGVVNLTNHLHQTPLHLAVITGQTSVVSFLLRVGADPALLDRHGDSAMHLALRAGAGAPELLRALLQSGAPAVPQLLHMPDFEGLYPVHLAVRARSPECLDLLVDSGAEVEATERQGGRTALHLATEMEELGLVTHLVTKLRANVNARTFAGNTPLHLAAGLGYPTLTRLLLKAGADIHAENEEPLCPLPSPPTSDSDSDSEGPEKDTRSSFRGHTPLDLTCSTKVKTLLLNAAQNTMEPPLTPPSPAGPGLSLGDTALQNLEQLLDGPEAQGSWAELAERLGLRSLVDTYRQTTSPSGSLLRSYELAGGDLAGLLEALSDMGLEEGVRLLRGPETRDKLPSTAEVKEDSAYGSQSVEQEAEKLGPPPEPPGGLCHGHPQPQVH
Nuclear factor NF-kappa-B complex (Homo sapiens), sequence (Q04206 whole entry, looked up): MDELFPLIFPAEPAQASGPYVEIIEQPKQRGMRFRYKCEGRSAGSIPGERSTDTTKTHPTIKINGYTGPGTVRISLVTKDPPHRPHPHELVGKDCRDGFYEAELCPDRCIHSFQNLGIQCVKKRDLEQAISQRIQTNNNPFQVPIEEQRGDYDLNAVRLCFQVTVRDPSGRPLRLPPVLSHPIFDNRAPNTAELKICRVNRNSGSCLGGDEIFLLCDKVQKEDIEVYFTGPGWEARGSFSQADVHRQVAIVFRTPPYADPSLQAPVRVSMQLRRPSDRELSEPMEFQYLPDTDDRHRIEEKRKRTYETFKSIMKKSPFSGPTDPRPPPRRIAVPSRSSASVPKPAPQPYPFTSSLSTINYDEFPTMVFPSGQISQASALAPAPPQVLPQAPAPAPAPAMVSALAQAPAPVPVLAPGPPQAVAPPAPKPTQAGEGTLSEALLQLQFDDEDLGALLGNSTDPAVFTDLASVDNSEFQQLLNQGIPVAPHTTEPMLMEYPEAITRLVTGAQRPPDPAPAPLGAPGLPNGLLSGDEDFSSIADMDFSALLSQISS

`O=C(Nc1cc(Cl)cc(Cl)c1)c1cc2ccccc2o1`: the viability at 10 µM in experiment [1] is 95%; in experiment [3], 99%; in experiment [4] it was 99%; in experiment [5], 93%; in experiment [6], 100%; in experiment [7] it was 102%. The same compound had an inhibition in experiment [2] of 20%.

For the compound `O=C(Nc1cc(C(F)(F)F)ccc1C(F)(F)F)c1cc2ccccc2o1`, the viability at 10 µM in experiment [1] worked out at 88%; in experiment [3], 95%; in experiment [4] it was 84%; in experiment [5], 89%; in experiment [6], 77%; in experiment [7], 98%. Besides, the inhibition in experiment [2] worked out at 28.5%.

As for `O=C(Nc1cccc(C(F)(F)F)c1)c1cc2ccccc2o1`, the viability at 10 µM in experiment [1] was determined as 75%; in experiment [3], 96%; in experiment [4] it was 83%; in experiment [5] it was 79%; in experiment [6] it was 92%; in experiment [7], 105%. For the same compound, the inhibition in experiment [2] amounted to 47.5%.

Take `COc1ccc(NC(=O)C2Cc3ccccc3O2)cc1OC` (configuration not stated): the viability at 10 µM was determined as 92% in experiment [1]; 38% in experiment [3]; 127% in experiment [4]; 87% in experiment [5]; 101% in experiment [6]; 71% in experiment [7]. The compound further yielded an inhibition in experiment [2] of 21.5%.

With `O=C(Nc1ccc(C(F)(F)F)cc1)c1cc2ccccc2o1`, the viability at 10 µM in experiment [1] came to 80%; in experiment [3], 74%; in experiment [4] it was 79%; in experiment [5] it was 75%; in experiment [6], 89%; in experiment [7], 89%. The compound further gave an inhibition in experiment [2] of 34.5%.

`O=C(Nc1ccc(Cl)c(Cl)c1)c1cc2ccccc2o1`: the viability at 10 µM in experiment [1] turned out to be 96%; in experiment [3], 113%; in experiment [4] it was 95%; in experiment [5], 102%; in experiment [6], 100%; in experiment [7], 80%. Also, the inhibition in experiment [2] stood at 40%.

Regarding `Cc1ccc(NC(=O)c2cc3ccccc3o2)cc1`, the viability at 10 µM in experiment [1] came to 82%; in experiment [3], 103%; in experiment [4] it was 96%; in experiment [5] it was 95%; in experiment [6], 104%; in experiment [7], 105%. The same compound registered an inhibition in experiment [2] of 34.5%.

Regarding `Cc1ccccc1NC(=O)C1Cc2ccccc2O1` (configuration not stated), the viability at 10 µM in experiment [1] worked out at 88%; in experiment [3], 87%; in experiment [4] it was 108%; in experiment [5], 91%; in experiment [6], 91%; in experiment [7] it was 103%. Moreover, the inhibition in experiment [2] is 38%.

Take `COc1cccc(NC(=O)c2cc3ccccc3o2)c1`: the viability at 10 µM in experiment [1] turned out to be 87%; in experiment [3], 106%; in experiment [4], 105%; in experiment [5], 99%; in experiment [6], 105%; in experiment [7], 127%. The inhibition in experiment [2] was 34.5%.

Take `O=C(Nc1ccccc1Cl)C1Cc2ccccc2O1` (configuration not stated): the viability at 10 µM worked out at 102% in experiment [1]; 96% in experiment [3]; 87% in experiment [4]; 104% in experiment [5]; 104% in experiment [6]; 81% in experiment [7]. In experiment [2], this compound came in with an inhibition of 37.5%.

As for `COc1ccc(NC(=O)C2Cc3ccccc3O2)cc1` (configuration not stated), the viability at 10 µM in experiment [1] stood at 89%; in experiment [3] it was 81%; in experiment [4], 140%; in experiment [5], 108%; in experiment [6], 102%; in experiment [7], 94%. Besides, in experiment [2], the inhibition amounted to 22.5%.
